Experiments:
neutrophils in BALF = test: Cigarette smoke model; format: in vivo, Mouse; details: LAS191954 1 mg/kg and/or dexamethasone 0.3 mg/kg
[1] = test system: Concanavalin A induced plasma interleukin-2 (IL-2) release; test: Concanavalin A induced plasma IL-2 release in rats; format: in vivo, Wistar rats; details: for reduction in IL2 production versus vehicle-treated con A-induced rats: LAS191954 0.1 mg/kg and/or dexamethasone 0.03 mg/kg, 1 h before con A, IL2 at 90 min; for plasma levels alone versus in combination: LAS191954 0.1 mg/kg, dexamethasone 0.03 mg/kg, rat
[2] = test system: neutrophils, eosinophils and lymphocytes in bronchoalveolar fluid (BALF); test: House dust mite induced asthma model; format: in vivo, Mouse
[3] = test system: autoantibody-mediated cutaneous lesions; test: Immunization-induced mouse model of epidermolysis bullosa acquista (EBA); format: in vivo, B6.SJL-H2s mice; details: 6 week treatment; for body weight gain: LAS191954 3 mg/kg/day or methylprednisolone 20 mg/kg/day orally
Description: Induction of experimental EBA was performed as described in Iwata H, Bieber K, Tiburzy B et al., J Immunol. 2013; 191:2978-2988. Briefly, 6-10 week B6.SJL-H2s mice were immunized with an emulsion of a recombinant protein encompassing the vWFA2 binding domain of mouse type VII collagen (COL7) in adjuvant (Titermax). After immunization, mice were weekly evaluated for the presence and extend of clinical disease, measured as percentage of body surface affected by skin lesions (erythema, blisters, erosions and crusts).
Treatments were carried out over a 6-week period, and mice were evaluated for the extend of clinical disease (primary endpoint) weekly. Clinical manifestations were scored 0 to 5, corresponding to 0%, <1%, ≧1% to <5%, ≧5% to <10%, ≧10% to <20% of body surface area affected, respectively. Area under Curve (AUC) was calculated from the score at inclusion, 1, 2, 3, 4, 5 and 6 weeks after allocation to treatment. For better comparability between experiments, the affected body surface area at weeks 1-6 was related to that at inclusion (set at 1).
Body weight was monitored weekly during treatment.

[4] = test system: 273 protein and lipid kinases; test: General selectivity kinase panel (Millipore, Invitrogen and ProQinase); format: biochemical; details: 10 μM
PI3Kδ [5] = molecular target: T1, PI3Kδ (Homo sapiens, UniProt O00329); test: BCR crosslinking-induced B cell CD69 expression, human whole blood; format: cell-based; details: CD19+ cells (human whole blood), B cell CD69 surface expression
Target sequence in this assay (O00329 whole entry): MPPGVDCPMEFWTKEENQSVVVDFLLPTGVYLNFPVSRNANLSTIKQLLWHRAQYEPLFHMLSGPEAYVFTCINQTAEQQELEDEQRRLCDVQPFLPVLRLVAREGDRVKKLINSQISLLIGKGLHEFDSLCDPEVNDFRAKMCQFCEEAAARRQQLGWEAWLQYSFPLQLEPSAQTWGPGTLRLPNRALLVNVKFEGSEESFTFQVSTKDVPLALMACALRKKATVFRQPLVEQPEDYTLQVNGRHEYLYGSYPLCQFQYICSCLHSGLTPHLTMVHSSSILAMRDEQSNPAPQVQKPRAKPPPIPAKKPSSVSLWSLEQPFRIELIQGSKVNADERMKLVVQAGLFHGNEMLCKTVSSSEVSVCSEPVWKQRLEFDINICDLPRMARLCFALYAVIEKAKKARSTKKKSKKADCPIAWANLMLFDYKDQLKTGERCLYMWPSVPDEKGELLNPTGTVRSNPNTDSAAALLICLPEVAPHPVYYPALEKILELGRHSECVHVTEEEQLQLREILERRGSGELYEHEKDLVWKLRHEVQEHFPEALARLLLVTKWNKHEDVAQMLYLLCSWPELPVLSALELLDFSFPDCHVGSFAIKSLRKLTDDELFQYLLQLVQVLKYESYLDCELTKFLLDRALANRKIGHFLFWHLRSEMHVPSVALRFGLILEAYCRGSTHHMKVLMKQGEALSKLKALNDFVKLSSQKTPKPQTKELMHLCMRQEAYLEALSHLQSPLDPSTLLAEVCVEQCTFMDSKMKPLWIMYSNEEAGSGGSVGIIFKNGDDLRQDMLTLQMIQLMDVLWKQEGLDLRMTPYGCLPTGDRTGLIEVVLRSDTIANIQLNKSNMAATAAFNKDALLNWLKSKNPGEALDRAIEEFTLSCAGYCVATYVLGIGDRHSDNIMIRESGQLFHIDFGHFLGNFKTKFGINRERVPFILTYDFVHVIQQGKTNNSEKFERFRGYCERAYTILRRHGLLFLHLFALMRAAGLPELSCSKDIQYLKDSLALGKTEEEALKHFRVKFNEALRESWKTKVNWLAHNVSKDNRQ
Target sequence in this assay (P27986 whole entry partner): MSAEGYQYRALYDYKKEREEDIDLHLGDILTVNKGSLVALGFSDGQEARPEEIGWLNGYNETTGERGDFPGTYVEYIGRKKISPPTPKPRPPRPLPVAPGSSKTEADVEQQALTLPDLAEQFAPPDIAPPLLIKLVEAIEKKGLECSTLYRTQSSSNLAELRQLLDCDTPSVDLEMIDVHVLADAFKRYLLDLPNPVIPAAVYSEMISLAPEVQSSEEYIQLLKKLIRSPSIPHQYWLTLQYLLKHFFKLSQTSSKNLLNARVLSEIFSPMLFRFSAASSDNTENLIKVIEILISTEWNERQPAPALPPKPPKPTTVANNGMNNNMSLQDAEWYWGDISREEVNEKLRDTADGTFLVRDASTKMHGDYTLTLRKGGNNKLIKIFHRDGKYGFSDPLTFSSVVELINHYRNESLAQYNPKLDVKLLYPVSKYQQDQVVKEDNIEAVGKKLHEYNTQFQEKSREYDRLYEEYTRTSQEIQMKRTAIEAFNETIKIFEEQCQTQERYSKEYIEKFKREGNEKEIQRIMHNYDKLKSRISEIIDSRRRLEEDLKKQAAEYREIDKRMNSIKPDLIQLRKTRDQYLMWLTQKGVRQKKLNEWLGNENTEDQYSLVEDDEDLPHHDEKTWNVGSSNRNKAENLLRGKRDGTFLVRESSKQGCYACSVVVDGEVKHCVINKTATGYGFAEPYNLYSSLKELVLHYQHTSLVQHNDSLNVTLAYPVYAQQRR

PI3Kβ = PI3Kβ (Homo sapiens, UniProt P42338); details: HUVEC, S1P stimulus, phosphorylated AKT
PI3K p110γ = PI3K p110γ (Homo sapiens, UniProt P48736); details: recombinant human isoform, pre-incubation 30 min
PI3Kδ [6] = molecular target: T1, PI3Kδ; test: M-CSF-induced AKT phosphorylation in THP-1 cells; format: cell-based; details: THP-1, M-CSF stimulus, phosphorylated AKT
Target sequence in this assay (O00329 whole entry): as the sequence (O00329 whole entry) above
Target sequence in this assay (P27986 whole entry partner): as the sequence (P27986 whole entry partner) above

[7] = test system: 81 GPCR receptors, 8 ion channels and 5 transporters; test: General selectivity panel (Cerep); format: binding; details: 10 μM
[8] = test system: Anti-Dsg3 and anti-dsDNA autoantibody production; test: MRL/lpr spontaneous autoimmune disease model, autoantibody production; format: in vivo, MRL/Ipr mouse; details: for Inhibition (%) of Anti Dsg3 total IgG production (Normalized AUCw 12-19) versus Vehicle / Inhibition (%) of Anti dsDNA total IgG production (Normalized AUCw 12-19) versus Vehicle: LAS191954 3 mg/kg or prednisolone 10 mg/kg orally once a day for 6 weeks
Description: The primary endpoint of this study was assessment of autoantibody production, including pemphigus-specific anti-Dsg3 antibodies.
The prednisolone dose was selected based on previous reports and corresponds to a high CS dose in humans.
As autoantibodies develop progressively and may follow a different course in each animal, anti-dsDNA antibody levels were measured on week 12 and used to uniformly distribute animals to dosing groups. At week 13, daily treatments were initiated and continued for 6 weeks. Antibodies to dsDNA and Dsg3 were measured at weeks 12, 15, 17 and 19. Skin lesions were inspected visually throughout the study. Effects on other parameters such as proteinuria, as well as general hematological, serological, and histological signs were evaluated at study completion.

PI3Kδ [9] = molecular target: T1, PI3Kδ; test: Immune complex-induced ROS release in human neutrophils; format: cell-based; details: immune complexes
Target sequence in this assay (O00329 whole entry): as the sequence (O00329 whole entry) above
Target sequence in this assay (P27986 2-724 partner limits assumed): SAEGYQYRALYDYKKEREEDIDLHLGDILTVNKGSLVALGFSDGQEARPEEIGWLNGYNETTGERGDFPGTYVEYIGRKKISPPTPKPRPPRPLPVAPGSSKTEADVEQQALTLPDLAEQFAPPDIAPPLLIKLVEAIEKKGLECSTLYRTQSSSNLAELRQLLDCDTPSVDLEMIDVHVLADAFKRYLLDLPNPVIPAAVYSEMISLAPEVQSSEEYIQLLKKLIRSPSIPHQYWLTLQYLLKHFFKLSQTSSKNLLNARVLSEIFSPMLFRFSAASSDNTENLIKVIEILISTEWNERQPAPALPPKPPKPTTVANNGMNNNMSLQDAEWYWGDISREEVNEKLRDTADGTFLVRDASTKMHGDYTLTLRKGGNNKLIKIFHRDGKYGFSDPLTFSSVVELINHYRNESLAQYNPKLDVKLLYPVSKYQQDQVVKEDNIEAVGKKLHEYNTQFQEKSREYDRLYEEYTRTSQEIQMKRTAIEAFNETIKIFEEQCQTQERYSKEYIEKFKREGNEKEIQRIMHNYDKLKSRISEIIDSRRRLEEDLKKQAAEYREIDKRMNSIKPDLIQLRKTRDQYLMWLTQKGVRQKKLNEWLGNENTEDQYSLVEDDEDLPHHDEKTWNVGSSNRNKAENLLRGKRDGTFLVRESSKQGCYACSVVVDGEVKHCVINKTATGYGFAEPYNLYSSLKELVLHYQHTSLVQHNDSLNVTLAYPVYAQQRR

PI3Kδ [10] = molecular target: T1, PI3Kδ; test: BCR crosslinking-induced CD69 expression in CD19+ B cells, isolated PBMC; format: cell-based; details: Anti-IgD, CD69 surface expression
Target sequence in this assay (O00329 whole entry): as the sequence (O00329 whole entry) above
Target sequence in this assay (P27986 whole entry partner): as the sequence (P27986 whole entry partner) above

CHO cells = details: highest tested concentration of 100 μM, 24 h
[11] = test system: primary antibody responses to KLH; test: Primary T cell dependent antibody response (TDAR) to KLH in mice; format: in vivo
Description: This assay allows a global assessment of the effect of a drug candidate on antigen presentation, helper T lymphocyte function and B lymphocyte dependent antibody production.
In both cases, the administration of the test compound started on the day of sensitization (day +1, KLH 2 mg/mouse, intravenously). […] A possible reason for this discrepancy is that the lymphocyte count of the concurrent vehicle group of the latter study was abnormally lower than usual, which could mask a potential effect of the test compound on this parameter.

[12] = test system: secondary IgG antibody responses to KLH; test: Secondary TDAR to KLH in mice; format: in vivo
Description: This assay included two immunizations with KLH separated 15 days apart (50 μg KLH/animal, intraperitoneally) and specific IgG anti-KLH levels were measured on day +11 after the second immunization. Administration of test compound (0.3 and 3 mg/kg) started on the day of second immunization (day +1) and then once daily for the next 9 days.

[13] = dexamethasone 0.1-10 mg/kg and LAS191954 0.1-10 mg/kg ranges tested, dose of value not stated
[14] = Week 12 (beginning of treatment)

PI3Kβ, sequence (P42338 whole entry, canonical isoform): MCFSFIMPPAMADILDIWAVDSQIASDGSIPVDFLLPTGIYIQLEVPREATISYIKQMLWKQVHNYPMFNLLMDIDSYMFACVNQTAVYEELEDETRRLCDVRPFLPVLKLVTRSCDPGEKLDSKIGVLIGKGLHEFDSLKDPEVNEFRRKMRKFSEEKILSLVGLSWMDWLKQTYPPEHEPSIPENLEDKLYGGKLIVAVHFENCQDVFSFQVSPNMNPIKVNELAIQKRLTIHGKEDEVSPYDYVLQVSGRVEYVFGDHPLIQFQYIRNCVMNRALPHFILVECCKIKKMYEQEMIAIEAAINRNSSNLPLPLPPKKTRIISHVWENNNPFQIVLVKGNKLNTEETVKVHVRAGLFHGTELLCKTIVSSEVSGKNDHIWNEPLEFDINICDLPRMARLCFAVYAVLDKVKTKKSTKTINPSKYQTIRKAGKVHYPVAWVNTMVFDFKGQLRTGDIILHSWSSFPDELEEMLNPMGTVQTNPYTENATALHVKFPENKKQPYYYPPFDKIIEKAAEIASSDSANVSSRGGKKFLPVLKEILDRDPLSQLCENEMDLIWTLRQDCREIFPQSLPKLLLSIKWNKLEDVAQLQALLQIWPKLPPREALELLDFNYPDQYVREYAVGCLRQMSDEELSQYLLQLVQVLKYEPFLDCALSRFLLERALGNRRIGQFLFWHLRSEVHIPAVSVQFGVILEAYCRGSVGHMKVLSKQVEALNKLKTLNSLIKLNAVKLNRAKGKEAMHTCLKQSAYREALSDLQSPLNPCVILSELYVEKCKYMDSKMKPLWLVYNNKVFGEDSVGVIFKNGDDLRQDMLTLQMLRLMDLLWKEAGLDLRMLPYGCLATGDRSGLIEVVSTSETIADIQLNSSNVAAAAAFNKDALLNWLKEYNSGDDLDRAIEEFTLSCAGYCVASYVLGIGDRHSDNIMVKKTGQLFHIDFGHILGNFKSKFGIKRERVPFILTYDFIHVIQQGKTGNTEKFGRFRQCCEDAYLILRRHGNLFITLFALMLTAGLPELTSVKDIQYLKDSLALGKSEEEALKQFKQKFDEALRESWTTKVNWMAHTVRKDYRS
PI3Kβ, sequence (P27986 whole entry partner, canonical isoform): as the sequence (P27986 whole entry partner) above
PI3K p110γ, sequence (P48736 whole entry, canonical isoform): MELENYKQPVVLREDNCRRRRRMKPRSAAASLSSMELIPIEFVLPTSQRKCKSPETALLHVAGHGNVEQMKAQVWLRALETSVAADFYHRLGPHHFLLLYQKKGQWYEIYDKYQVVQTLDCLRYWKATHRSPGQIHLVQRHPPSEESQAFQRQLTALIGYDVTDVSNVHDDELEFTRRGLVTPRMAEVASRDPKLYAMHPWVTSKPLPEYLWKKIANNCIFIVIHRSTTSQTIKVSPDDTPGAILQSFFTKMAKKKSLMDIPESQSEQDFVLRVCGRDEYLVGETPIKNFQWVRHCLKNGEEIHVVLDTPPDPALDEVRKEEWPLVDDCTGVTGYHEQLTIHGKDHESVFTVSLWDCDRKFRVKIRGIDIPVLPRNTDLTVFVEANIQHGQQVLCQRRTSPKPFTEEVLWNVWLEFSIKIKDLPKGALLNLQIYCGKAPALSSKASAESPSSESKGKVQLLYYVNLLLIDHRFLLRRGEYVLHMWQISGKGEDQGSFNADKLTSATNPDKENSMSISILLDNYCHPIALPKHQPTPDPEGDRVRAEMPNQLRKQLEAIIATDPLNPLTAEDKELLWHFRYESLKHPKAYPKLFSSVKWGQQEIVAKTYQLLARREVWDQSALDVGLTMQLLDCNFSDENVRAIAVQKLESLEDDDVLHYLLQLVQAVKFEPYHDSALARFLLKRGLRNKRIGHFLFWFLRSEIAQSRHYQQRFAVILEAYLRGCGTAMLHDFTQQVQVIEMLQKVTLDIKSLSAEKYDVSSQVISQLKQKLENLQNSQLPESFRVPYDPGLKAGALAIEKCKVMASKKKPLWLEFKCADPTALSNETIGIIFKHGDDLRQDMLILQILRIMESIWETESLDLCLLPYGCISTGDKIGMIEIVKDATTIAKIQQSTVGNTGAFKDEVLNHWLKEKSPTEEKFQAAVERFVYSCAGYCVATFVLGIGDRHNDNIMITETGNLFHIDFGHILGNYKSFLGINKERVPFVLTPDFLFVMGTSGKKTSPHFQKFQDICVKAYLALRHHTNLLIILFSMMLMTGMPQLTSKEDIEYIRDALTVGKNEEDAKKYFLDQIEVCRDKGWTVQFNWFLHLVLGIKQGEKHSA

C[C@@H]1C[C@H]2[C@@H]3CCC4=CC(=O)C=C[C@]4(C)[C@@]3(F)[C@@H](O)C[C@]2(C)[C@@]1(O)C(=O)CO [Dexamethasone, dexamethasone, reference compound]
reduction in neutrophils in BALF (neutrophils in BALF): only = 11% | reduction in IL2 production versus vehicle-treated con A-induced rats [1]: only = 42% | reduction in IL2 production versus vehicle-treated con A-induced rats ([1]; listed as dexamethasone): 42% | plasma levels alone versus in combination [1]: same levels | reduction in eosinophils in BALF [2, 13]: 58% | reduction in lymphocytes in BALF [2, 13]: 64% | reduction in neutrophils in BALF [2, 13]: only = 53%,

C[C@H](Nc1ncnc(N)c1C#N)c1nn2ccc(C#N)c2c(=O)n1-c1ccccc1 [LAS191954, (S)-2-(1-(6-amino-5-cyanopyrimidin-4-ylamino)ethyl)-4-oxo-3-phenyl-3,4-dihydropyrrolo[1,2-f][1,2,4]triazine-5-carbonitrile]
overall disease activity, AUC of accumulative clinical score versus vehicle ([3]; LAS191954 3 mg/kg/day orally): significant reduction | body weight gain [3]: not altered | reduction in neutrophils in BALF (neutrophils in BALF): only = 49% | inhibition at single concentration [4]: No inhibition | IC50 (PI3Kδ [5]; Anti-IgD): 47 nM | IC50 (PI3Kδ [5]; Anti-IgM): 34 nM | IC50 (PI3Kβ): 295 nM | IC50 (PI3K p110γ): 71.7 nM | IC50 (PI3Kδ [6]): 7.8 nM | inhibition at single concentration [7]: No inhibition | plasma levels alone versus in combination [1]: same levels | ID50 ([1]; single administration, rats): 0.13 mg/kg | ID50 ([8]; Anti-Dsg3 and anti-dsDNA autoantibody production, repeated administration): <3 mg/kg | Absolute Anti-Dsg3 IgG levels (Mean ± SEM) [8, 14]: 687 ± 252 U/ml | Absolute Anti-dsDNA IgG levels (Mean ± SEM) [8, 14]: 370.152 ± 52.401 U/ml | Absolute Anti-Dsg3 IgG levels (Mean ± SEM) ([8]; Week 19 (end of treatment)): 450 ± 201 U/ml | Absolute Anti-dsDNA IgG levels (Mean ± SEM) ([8]; Week 19 (end of treatment)): 333.806 ± 106.959 U/ml | mean decrease in anti-Dsg3 antibody levels below those at the beginning of treatment ([8]; week 19 versus week 12, FIG. 3): 40% | reduction of anti-dsDNA antibody titers at the end of treatment ([8]; week 19 versus week 12, FIG. 3): 10% | IC50 (PI3Kδ [9]): 11 nM | IC50 (PI3Kδ [10]): 4.6 nM | maximum cell death (CHO cells): 27% | ID50 ([11]; primary IgG anti-KLH, day +15, 14-day dosing): 0.17 mg/kg | lymphocyte count ([11]; primary IgG study, 14-day dosing): no apparent effect | ID50 ([11]; primary IgM anti-KLH, day +5, repeated daily administration): 0.12 mg/kg | WBC counts ([11]; primary IgM study, 4 days daily treatment): lower WBC counts | general health status of the animals ([11]; primary TDAR, 0.03-10 mg/kg daily): without apparent effects | effect on eosinophils in BALF (in words) ([2]; LAS191954 only): only = Modest | effect on lymphocytes in BALF (in words) ([2]; LAS191954 only): only = Modest | effect on neutrophils in BALF (in words) ([2]; LAS191954 only): increase in | lymphocyte counts ([12]; 0.3 and 3 mg/kg once daily): reduced lymphocyte counts | ID50 ([12]; secondary IgG anti-KLH, day +11 after second immunization, repeated administration): < 0.3 mg/kg

C[C@H]1C[C@@H]2[C@H]([C@@H](O)C[C@@]3(C)[C@H]2CC[C@]3(O)C(=O)CO)[C@@]2(C)C=CC(=O)C=C12 [Methylprednisolone, reference compound]
body weight gain [3]: diminished the body weight gain

C[C@]12C=CC(=O)C=C1CC[C@@H]1[C@@H]2[C@@H](O)C[C@@]2(C)[C@H]1CC[C@]2(O)C(=O)CO [Prednisolone, prednisolone]
Inhibition (%) of Anti Dsg3 total IgG production (Normalized AUCw 12-19) versus Vehicle [8]: 49.5 ± 10% | Inhibition (%) of Anti dsDNA total IgG production (Normalized AUCw 12-19) versus Vehicle [8]: 46.9 ± 10.9% | Inhibition (%) of Anti Dsg3 total IgG production (Normalized AUCw 12-19) versus Vehicle ([8]; listed as prednisolone): 49.5% | Inhibition (%) of Anti dsDNA total IgG production (Normalized AUCw 12-19) versus Vehicle ([8]; listed as prednisolone): 47% | Absolute Anti-Dsg3 IgG levels (Mean ± SEM) [8, 14]: 501 ± 188 U/ml | Absolute Anti-dsDNA IgG levels (Mean ± SEM) [8, 14]: 372.796 ± 56.638 U/ml | Absolute Anti-Dsg3 IgG levels (Mean ± SEM) ([8]; Week 19 (end of treatment)): 242 ± 101 U/ml | Absolute Anti-dsDNA IgG levels (Mean ± SEM) ([8]; Week 19 (end of treatment)): 933.755 ± 343.424 U/ml | change of anti-dsDNA antibody levels at the end of treatment (in words) ([8]; week 19 versus week 12, FIG. 3): doubled | mean decrease in anti-Dsg3 antibody levels below those at the beginning of treatment ([8]; week 19 versus week 12, FIG. 3): 20%

From patent US20170151264A1, “COMBINATION” (Almirall, S.A., priority 2014, published 2017)
